Results published in US20260001910A1, “PEPTIDES AND USES THEREOF” (PreveCeutical Medical Inc., priority 2021, published 2026).

Tests used:
recombinant MMP-2 = molecular target: T1, recombinant MMP-2 (Homo sapiens, UniProt P08253); assay: MMP-2 Inhibitor Screening Assay Kit (colorimetric); type: biochemical; conditions: lower % = higher inhibitory activity
T1 construct: purchased ab139446
Method: MMP-2 is an important target for inhibitor screening due to its involvement in cancer growth, angiogenesis, and metastasis. The MMP-2 screening assay was carried out with a commercially available MMP-2 Inhibitor Screening Assay Kit (Colorimetric, Catalog: ab139446) based on the manufacturers protocol. This assay is based on quantification of recombinant MMP-2 activity using a colorimetric assay (MMP-2 degrades a chromogenic substrate). The assay provides NNGH (N-isobutyl-N-(4-methoxyphenylsulfonyl) glycyl hydroxamic acid), a small molecule inhibitor, as a positive control (NNGH). […] Each determination was run in duplicate.
Briefly, MMP Substrate and MMP Inhibitor were warmed to room temperature to thaw DMSO. MMP Inhibitor (NNGH), MMP-2 substrate and MMP-2 enzyme were diluted with assay buffer to required concentration. 20 μL of MMP-2 enzyme and MMP-2 inhibitor (peptides, Chlorotoxin and NNGH) was added, then 50 μL of assay buffer was added and the reaction mixture incubated at 37° C. for 1 h. After incubation, 10 μL of MMP Substrate was added to start reaction. The reactions were continuously read at 412 nm in a microplate reader. Data was recorded at 1 min. time intervals for 10 to 20 min. The data as was plotted as optical density (OD) versus time for each sample. The reaction velocity (V) was obtained in OD/min: determine the slope of a line fit to the linear portion of the data plot using an appropriate routine. Then using the equation above the inhibitor % activity remaining was calculated. The control was without inhibitor.

[1] = system: GBM cells (U251, U87 and 081024 cells); assay: Binding/internalization of biotinylated peptide, confocal fluorescence microscopy; type: cell-based, human; conditions: 0.5 mM labelled peptide
Method: FIG. 1 provides fluorescence staining of biotinylated peptide SEQ ID NO. 1 after 6 hours cell exposure (U251 cells and U87 cells) or 5 min cell exposure (081024 oncospheres). Upper right-hand panel: U251 cells, middle right-hand panel, U87 cells, lower right-hand panel, 081024 oncospheres. No peptide negative control (left side of each panel). […] Nuclei appear blue due to DAPI staining. Images were captured using a 100X objective and a Olympus FV3000 confocal microscope
To document binding and/or internalization of the peptides to the cells, biotinylated derivatives of the peptides were synthesised to allow detection by Cy3-conjugated avidin staining using confocal fluorescence microscopy.
U87 and U251 cells were seeded on 8-chamber polystyrene vessel tissue culture-treated glass slides (Falcon). After 24h, cells were incubated with biotinylated peptide (0.5 mM) containing serum free media for 5 min and 6 h. […] Cells were then rinsed and mounted on microscopic slides with DAPI-containing mounting medium for confocal fluorescence imaging analysis.
The ability of SEQ ID NO. 41 to bind and/or enter GBM cells was evaluated. In a first set of experiments, adherent GBM cells and non-adherent GBM cells were exposed to 0.5 mM labelled peptide for 6 h, processed and analysed by confocal immunofluorescence microscopy. […]

U87 cells = conditions: U87, 1 μM, 24h
Method: (§1) This assay, described in more detail below, is an in vitro surrogate for measurement of the in vivo invasion by tumour cells of their environment.
(§2) The cell invasion assay employs a simplified Boyden chamber-like design that consists of two chambers separated by a filter (an 8 μm polycarbonate (PC) membrane) coated with basement membrane or different extracellular matrix components. The cell suspension is placed in the top chamber and incubated in the presence of test media containing specific chemo-attractants in the bottom chamber. Cells migrate from the top chamber to the bottom of the filter by degrading the coating over the filter pores. Detection of cell invasion is quantified using Calcein AM. Cell dissociation/Calcein AM solution is placed in the bottom chamber to dissociate the migrating cells from the filter. Calcein AM is internalized by the cells, and intracellular-esterases cleave the aceto-methylester (AM) moiety.
(§3) The filter was coated with PathClear® growth factor reduced BME.
(§4) Cell invasion was determined using CultureCoat® 96 Well Medium BME Cell Invasion assay. Briefly, the cells were pre-starved 24h before harvest. Then seeding 25,000 per well of cell in the upper chamber with serum free medium together different concentration of peptide. […] After 24h incubation, the invading cells were measured by Calcein AM and calculated based on standard curve.

U251 cells = conditions: U251, 1 μM, 24h
Method: as §1, §2, §3, §4

081024 oncospheres = conditions: 081024, 1 μM, 24h

T1 sequence (P08253 110-446 limits assumed): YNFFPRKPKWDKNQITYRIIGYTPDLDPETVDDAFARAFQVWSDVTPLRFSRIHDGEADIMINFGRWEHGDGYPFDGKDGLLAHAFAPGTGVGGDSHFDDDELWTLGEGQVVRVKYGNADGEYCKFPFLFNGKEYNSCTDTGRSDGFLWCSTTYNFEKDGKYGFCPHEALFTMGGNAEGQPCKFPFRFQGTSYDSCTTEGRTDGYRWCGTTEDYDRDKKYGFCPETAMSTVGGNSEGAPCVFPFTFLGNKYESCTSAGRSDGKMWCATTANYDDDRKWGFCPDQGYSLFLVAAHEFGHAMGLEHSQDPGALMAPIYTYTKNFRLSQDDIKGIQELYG

For `COc1ccc(S(=O)(=O)N(CC(=O)NO)CC(C)C)cc1` [NNGH, N-isobutyl-N-(4-methoxyphenylsulfonyl) glycyl hydroxamic acid, reference compound], the “% inhibition (MMP-2 inhibitor screening)” value (recombinant MMP-2; 1.3 μM) was 2.29%.
In the case of “Biotin-tyr-gly-gly-phe-leu-arg-arg [SEQ ID NO. 41]”, the “binding/entry into GBM cells, Cy3 staining” value ([1]; 5 minutes exposure, U251, U87 and 081024 cells) is reported as “already internalised” and the “binding/entry into GBM cells, Cy3 staining” value ([1]; 6 h exposure) is reported as “bright intracellular fluorescence”.
Chlorotoxin was tested, and the “% inhibition (MMP-2 inhibitor screening)” value (recombinant MMP-2; 1 μM) was 67.94%, the “Invasion Inhibition Index (%)” value (U87 cells) was 39.5% and the “Invasion Inhibition Index (%)” value (U251 cells) was 28.50%. The “Invasion Inhibition Index (%)” value (081024 oncospheres) was 45.0%.
